Key:
[1] = test system: fetuses of female rats; test: Teratogenic effects in the rat; format: in vivo
[2] = test system: acute experimental autoimmune encephalomyelitis (aEAE); test: Acute experimental autoimmune encephalomyelitis (aEAE) inhibition; format: in vivo; conditions: at ≧5 mg/kg, mice, treatment control
[3] = test system: fetuses of female rats; conditions: rat, background statement; cited from earlier work
[4] = e.g. a flu-like syndrome; cited from earlier work
[5] = test system: beagle dogs; test: Beagle Pain Syndrome (BPS); format: in vivo, dog
Experimental: Beagle Pain Syndrome (BPS)
The compounds were administrated intravenously to beagle dogs. The dosage was given for five consecutive days. The dogs were evaluated for clinical and laboratory signs of the pain syndrome, e.g. fever, increased erythrocyte sedimentation rate (ESR), alkaline phosphate (AP), induction of acute phase proteins and vasculitis.

Beagle Pain Syndrome (in words) [5]	Compound	% malformed fetuses ([1]; 6 mg/kg p.o.)	% malformed fetuses ([1]; 30 mg/kg p.o.)	inhibition of aEAE [2]	teratogenicity (in words) [3]	side effects in man (in words) [4]	% malformed fetuses ([1]; 10 mg/kg p.o.)
–	COc1cccc2c1c(O)c(C(=O)N(C)c1ccc(C(F)(F)F)cc1)c(=O)n2C [Compound A, N-methyl-N-(4-trifluoromethyl-phenyl)-1,2-dihydro-4-hydroxy-5-methoxy-1-methyl-2-oxo-quinoline-3-carboxamide]	4%	2%	–	–	–	–
–	CN(C(=O)c1c(O)c2c(Cl)cccc2n(C)c1=O)c1ccc(F)cc1F [Compound B, N-methyl-N-(2,4-difluoro-phenyl)-1,2-dihydro-4-hydroxy-5-chloro-1-methyl-2-oxo-quinoline-3-carboxamide]	0%	–	–	–	–	–
–	CN(C(=O)c1c(O)c2c(Cl)cccc2n(C)c1=O)c1ccccc1 [Compound C, N-Methyl-N-phenyl-1,2-dihydro-4-hydroxy-5-chloro-1-methyl-2-oxo-quinoline-3-carboxamide]	37%	–	–	–	–	–
induce the Beagle Pain Syndrome	CN(C(=O)c1c(O)c2ccccc2n(C)c1=O)c1ccccc1 [Compound D, N-phenyl-N-methyl-1,2-dihydro-4-hydroxy-1-methyl-2-oxo-quinoline-3-carboxamide]	–	30%	more than 50%	teratogenic in the rat	dose-limiting side effects	9%

From patent US6593343B2, “Quinoline derivatives” (Active Biotech AB, priority 1998, dated 2003)
